The test system of the assay is PBL. Briefly: cells. The note with it: Homo sapiens, Blood.

Consider 37 compounds from ChEMBL document CHEMBL1136039, “Synthesis and SAR of novel imidazoquinoxaline-based Lck inhibitors: improvement of cell potency” (Bioorg Med Chem Lett, 2002).

Structures are written as SMILES.

Description: 50% inhibition of T-cell proliferation induced by anti-CD3/anti-CD28 co-stimulation in human peripheral blood leukocytes (PBLs).

Consider `Cc1cccc(Cl)c1Nc1nc2cc(O)c(O)cc2n2cncc12`, for which the IC50 is more than 9 µM. Consider `Cc1cccc(Cl)c1Nc1nc2ccc(N3CCNCC3)cc2n2cncc12`, for which the IC50 amounted to 0.38 µM. As for `COc1cc2c(cc1NCCN(C)C)nc(Nc1c(C)cccc1Cl)c1cncn12`, the figure is 0.19 µM; as for `Cc1cccc(Cl)c1Nc1nc2cc(NCCCN(C)C)ccc2n2cncc12`, 0.48 µM; as for `CCNc1ccc2nc(Nc3c(C)cccc3Cl)c3cncn3c2c1`, 2.2 µM. Compound `COc1cccc2nc(Nc3c(C)cccc3Cl)c3cncn3c12` came in with an IC50 of 2.3 µM.

In turn, `Cc1cccc(Cl)c1Nc1nc2ccc(NCCN3CCOCC3)cc2n2cncc12` had an IC50 of 1.3 µM. The result for `Cc1cccc(Cl)c1Nc1nc2ccc(N3CCOCC3)cc2n2cncc12` reads 0.78 µM; that for `Cc1cccc(Cl)c1Nc1nc2cc(N3CCOCC3)ccc2n2cncc12`, 1 µM; that for `Cc1cccc(Cl)c1Nc1nc2cc3c(cc2n2cncc12)OCO3`, 2 µM. The result for `Cc1cccc(Cl)c1Nc1nc2ccc(N3CCCN(C)CC3)cc2n2cncc12` reads 0.54 µM.

`CCN1CCN(c2ccc3nc(Nc4c(C)cccc4Cl)c4cncn4c3c2)CC1` returned an IC50 of 0.27 µM. As for `Cc1cccc(Cl)c1Nc1nc2ccc(NCCCN3CCOCC3)cc2n2cncc12`, the figure is 0.76 µM. Turning to `Cc1cccc(Cl)c1Nc1nc2ccc(NCCN(C)C)cc2n2cncc12`, half-maximal inhibition (IC50) was put at 0.88 µM. In turn, `Cc1cccc(Cl)c1Nc1nc2cc(NCCN(C)C)ccc2n2cncc12` yielded an IC50 of 0.52 µM. The result for `Cc1cccc(Cl)c1Nc1nc2ccc(N(C)C)cc2n2cncc12` reads 2 µM; that for `COc1ccc2c(c1)nc(Nc1c(C)cccc1Cl)c1cncn12`, 2.6 µM. The compound `Cc1cccc(Cl)c1Nc1nc2cc3c(cc2n2cncc12)OCCO3` showed a half-maximal inhibitory concentration (IC50) of 2.2 µM. Regarding `COc1ccc2nc(Nc3c(C)cccc3Cl)c3cncn3c2c1`, the IC50 is 1.4 µM.

`Cc1cccc(Cl)c1Nc1nc2cc(N3CCN(C)CC3)ccc2n2cncc12`: 0.72 µM corresponded to half-maximal inhibition (IC50). As for `COc1cc2c(cc1NCCN1CCOCC1)nc(Nc1c(C)cccc1Cl)c1cncn12`, the figure is 0.28 µM; as for `COc1cc2nc(Nc3c(C)cccc3C)c3cncn3c2cc1OC`, 1.1 µM. Turning to `COc1cc2c(cc1OCCN1CCOCC1)nc(Nc1c(C)cccc1Cl)c1cncn12`, the IC50 was 0.47 µM. In turn, `CCN(CC)c1ccc2c(c1)nc(Nc1c(C)cccc1Cl)c1cncn12` yielded an IC50 of 1.7 µM.

Regarding `CCN(CC)c1ccc2nc(Nc3c(C)cccc3Cl)c3cncn3c2c1`, the IC50 worked out at 2.6 µM. `COc1cc2c(cc1NCCN(C)C)nc(Nc1c(C)cccc1Cl)c1cnc(C)n12` came in with an IC50 of 0.13 µM. As for `Brc1ccccc1Nc1nc2ccccc2n2cncc12`, the figure is 17 µM. For the compound `COc1cc2nc(Nc3c(C)cccc3Cl)c3cncn3c2cc1OC`, the IC50 was 0.67 µM. As for `Cc1cccc(Cl)c1Nc1nc2cc(N3CC(C)NC(C)C3)ccc2n2cncc12` (configuration not stated), the figure is 0.57 µM; as for `Cc1cccc(Cl)c1Nc1nc2ccc(N)cc2n2cncc12`, 1.6 µM; as for `Cc1cccc(Cl)c1Nc1nc2ccc(N3CC(C)NC(C)C3)cc2n2cncc12` (configuration not stated), 0.34 µM.

The compound `COc1cc2c(cc1NCCN(C)C)nc(Nc1c(F)cccc1Cl)c1cncn12` registered an IC50 of 0.24 µM. As for `CC(=O)Nc1ccc2nc(Nc3c(C)cccc3Cl)c3cncn3c2c1`, the figure is 1.4 µM; as for `COc1cc2nc(Nc3c(C)cccc3Cl)c3cncn3c2cc1N1CC(C)NC(C)C1` (configuration not stated), 0.76 µM; as for `Cc1cccc(Cl)c1Nc1nc2ccc(N3CCN(C)CC3)cc2n2cncc12`, 0.24 µM. Compound `Cc1cccc(Cl)c1Nc1nc2ccc(N3CCN(C=O)CC3)cc2n2cncc12` returned an IC50 of 0.53 µM.

Compound `Cc1cccc(Cl)c1Nc1nc2cc(N3CCNCC3)ccc2n2cncc12` returned an IC50 of 1 µM.

In general, IC50 refers to the concentration that inhibits the measured activity by half. Low readings indicate greater potency, high ones weaker potency.
